According to paper PMC3171408, “Analysis of the BarA/UvrY Two-Component System in Shewanella oneidensis MR-1” (PLoS ONE, 2011):

Molecular target: T1, BarA(181–929) (Shewanella oneidensis, UniProt Q8EBQ2)
T1 construct: cytoplasmic region aa 181-929 of 929 aa (full length 103 kDa; two N-terminal TM domains removed), N-terminal 6xHis tag (pBAD-HisA), expressed in E. coli, Ni-NTA purified
T1 sequence (Q8EBQ2 187-935): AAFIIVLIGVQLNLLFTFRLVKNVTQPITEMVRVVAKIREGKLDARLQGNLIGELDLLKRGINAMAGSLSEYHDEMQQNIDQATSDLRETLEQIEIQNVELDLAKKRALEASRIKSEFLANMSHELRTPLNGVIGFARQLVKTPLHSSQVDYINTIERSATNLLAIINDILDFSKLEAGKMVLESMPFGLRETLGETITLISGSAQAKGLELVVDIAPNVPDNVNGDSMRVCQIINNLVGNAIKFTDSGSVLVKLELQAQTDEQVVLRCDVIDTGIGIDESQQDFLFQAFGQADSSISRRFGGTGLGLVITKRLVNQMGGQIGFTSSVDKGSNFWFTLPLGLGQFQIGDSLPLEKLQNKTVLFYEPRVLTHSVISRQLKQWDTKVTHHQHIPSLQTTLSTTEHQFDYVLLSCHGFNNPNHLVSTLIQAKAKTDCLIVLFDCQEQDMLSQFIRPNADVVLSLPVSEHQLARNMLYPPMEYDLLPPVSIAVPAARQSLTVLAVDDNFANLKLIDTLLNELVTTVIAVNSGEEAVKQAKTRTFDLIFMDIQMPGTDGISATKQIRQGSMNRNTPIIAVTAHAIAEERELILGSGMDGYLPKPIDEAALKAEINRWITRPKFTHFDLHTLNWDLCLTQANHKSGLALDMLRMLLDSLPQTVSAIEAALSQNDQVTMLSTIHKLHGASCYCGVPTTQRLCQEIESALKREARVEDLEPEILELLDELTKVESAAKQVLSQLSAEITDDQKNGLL
Assay: autophosphorylation, SDS-PAGE autoradiography
Type: biochemical
Details: 0.5 mM ATP, 10 µM protein, 5 mM MgCl2, 50 mM KCl, pH 8.0, room temperature; labelled compound

Nc1ncnc2c1ncn2[C@@H]1O[C@H](COP(=O)(O)OP(=O)(O)OP(=O)(O)O)[C@@H](O)[C@H]1O [[γ-^32P]ATP]
autophosphorylation, SDS-PAGE autoradiography: BarA was readily phosphorylated, indicating autophosphorylation activity of the kinase region.
